Results on one molecule are retold here after patent US8343458B2, “Probes for in vivo targeting of active cysteine proteases” (The Board of Trustees of the Leland Stanford Junior …, priority 2008, dated 2013).

The experiment relates to thymus tissue undergoing apoptosis. Kind of experiment: Tissue uptake in dexamethasone apoptosis mouse model. Particulars: dexamethasone-treated mice, 125I-labeled probe, radioactivity over time. Type of experiment: in vivo. Here is the method: Graphs are for thymus, blood, muscle and liver.
Distribution studies were done in mice that were treated with dexamethazone (IP injection) to induce apoptosis in the thymus. This animal model is further described, e.g., in Casteels et al. “Sex Difference in Resistance to Dexamethasone-Induced Apoptosis in NOD Mice,” Diabetes, 47:1033-1037, 1998. AB53 was labeled with ^125I at the nitrophenol capping group.
Referring now to FIG. 6, data for the uptake of the probe in different tissues was obtained. Presented there are four graphs, one for thymus (FIG. 6A), one for blood (FIG. 6B) one for muscle (FIG. 6C) and one for liver (FIG. 6D), showing data from the in vivo uptake studies with ^125I-AB53. Graphs plot radioactivity as percent of initial dose/g of tissue from ^125I measured in different organs over time.

SMILES strings stand for the structures.

For the molecule `Cc1cccc(C)c1C(=O)OCC(=O)[C@H](CC(=O)O)NC(=O)C1CCCN1C(=O)[C@H](Cc1ccc(-c2ccccc2)cc1)NC(=O)Cc1ccc([N+](=O)[O-])c(O)c1` (stereo partly shown) [AB53], the “Probe uptake in thymus” value is “accumulates specifically in the thymus tissue that is undergoing apoptosis”.
